From the NIST ThermoML archive (doi:10.1016/j.jct.2015.11.006)
± gives the expanded uncertainty stated by the source.

Test: refractive index (Na D-line) (dimensionless)
Settings: 298.15 K; 101.33 kPa; Liquid; Standard Abbe refractometry

refractive index	Compound
1.3756 ± 0.0005	CC(C)O [propan-2-ol]
1.3326 ± 0.0005	O [water]
1.3591 ± 0.0005	CCO [ethanol]
